{"source": "patent US11324774B2", "about": "“Compositions of oral alkaline salts and metabolic acid inducers and uses thereof” (Augusta University Research Institute, Inc., priority 2018, dated 2022)", "key": {"[1]": {"conditions": "for Glucose / HCO3− / Hct / pCO2 / pH / pO2: arterial blood, 0.1M NaHCO3 in drinking water", "excerpt": "Arterial blood gas measurements: Dahl SS rats were anesthetized (2-5% isoflurane) and the left femoral artery was catheterized. Surgically implanted catheters were then tunneled under the skin and exposed between the shoulder blades. Catheters were protected by a light wire spring attached to a swivel (Instech Laboratories Inc, Plymouth Meeting, Pa.), which allows free 360-degree movement of the animal. Rats were individually housed and allowed to recover for 1 week before beginning experimental measurements. Catheters were filled with heparinized saline (30 U/mL) and connected to an infusion pump (Phd2000, Harvard Apparatus, Holliston, Mass.). Infusions of heparinized saline were maintained at 100 μL/hr over the course of the protocol. 0.2 mL arterial blood samples were taken prior to placing rats on treated water, on day 3 of low salt feeding and on day 7 of high salt feeding by disconnecting the catheter from the infusion pump proximal to emergence of the catheter from the rat and drawing arterial blood into a heparinized 1 mL syringe. Arterial blood gas measurements were performed on a Rapidpoint 4055 Blood gas analyzer (Seimens AG, Munich Germany) within 20 minutes of taking the sample. Arterial blood gas measurements on day 14 of HS feeding were taken at the time of sacrifice by left ventricular puncture in anesthetized (2-5% isoflurane) rats.\nRat protocols: Dahl SS rats: All rats were maintained on low salt chow with ad libitum water (tap water). […] Following four days of low salt (LS) feeding, rats were placed on an 8% HS diet (AIN76A 8%; Dyets) for two weeks. 24 hour urine collections were obtained on day 3 of low salt and day 7 and day 14 of high salt feeding if applicable. Following 14 days of HS feeding, rats were anesthetized with isoflurane (2-5%) and tissue harvested for analysis.\nBlood gas/electrolytes: In a parallel study, rats were implanted with a femoral arterial catheter to allow arterial blood sampling."}, "[2]": {"tested_on": "blood leukocytes (M1, M2 macrophages, TNFα+ neutrophils)", "conditions": "single 2 g dose", "protocol": "Blood was taken at all time points for all control subjects. No data was excluded from the analysis. Flow cytometric analysis of heparinized whole blood was performed as described previously. Briefly, cells were incubated with antibodies for surface markers (15 minutes on ice in dark) before incubation with antibodies against intracellular cytokines and factors (after permeabilization for 15 minutes using fix/Perm cocktail, eBioscience, San Diego USA) including, CD11b, CD68, TNFα (for M1 macrophages), CD11b, CD68, CD206 and IL-10 (for M2 macrophages) (purchased from BD BioSciences) and CD16 and TNFα (for neutrophils, from eBioscience, USA). Cells were then washed and run through a four-color flow cytometer (FACS Calibur, BD Biosciences), and data were collected using CellQuest software. Samples were double-stained with control IgG and cell markers to assess any spillover signal of fluorochromes. Proper compensation was set to ensure the median fluorescence intensities of negative and positive cells were identical and then was used to gate the population. Gating excluded dead cells and debris using forward and side scatter plots."}, "[3]": {"tested_on": "parasympathetic activity", "protocol": "Changes in heart rate (HR) and RR-interval were monitored over the last 5 min of a 15 min period of quiet rest in a supine position to establish baseline values. Time-domain indices of heart rate variability (HRV) including the root mean square differences of successive normal sinus RR intervals (rMSSD) and the percentage of successive normal sinus RR intervals >50 ms (pNN50) were calculated from a 3-lead ECG that was continuously recorded via a Finapres NOVA (Finapres Medical Systems, The Netherlands). Following treatment an additional 5 min segment of data was collected in the same manner and used to calculate post-treatment values of rMSSD and pNN50.\nParasympathetic activity was determined as described above. Potassium levels were determined using standard clinical laboratory procedures (Labcorp)."}, "[4]": {"tested_on": "IL-6", "protocol": "(§1) IL-6 and TNF-α were determined in plasma samples using the microfluidic simple plex cartridge system following manufacturer specifications. Briefly, Simple Plex uses 25 μL of serum for measurement of the […] cytokines. The work flow of the Simple Plex assays is: (a) a test cartridge is primed with samples with each sample split into channels (i.e., TNF-α and IL-6 to react with their respective antibodies immobilized on glass nanoreactors; (b) after sample incubation, circuits in the cartridge are cleaned with wash buffer, and biotinylated detection antibody solutions are individually pumped into their respective channels to bind to protein analyte captured on the GNRs; (c) after incubation, unbound detection antibodies are washed away and a detection solution (i.e., streptavidin DyLight 650) is flowed into all channels to conjugate with the biotinylated detection antibodies; (d) the detection solution is washed away; detection fluorophores (i.e., DyLight 650) are excited with a 631 nm laser; and the fluorescence signals are read with a charge-coupled device (CCD) camera. The signals are used for quantification based on master calibrator curves provided by the manufacturer."}, "[5]": {"tested_on": "TNF-α", "protocol": "as §1"}, "[6]": {"tested_on": "kidney cells (M1/M2 macrophages)"}, "[7]": {"tested_on": "kidney cells (M1/M2 macrophages)", "conditions": "4 days"}, "[8]": {"conditions": "Kidney, 14 Days HS, 0.1M NaHCO3 in drinking water"}, "[9]": {"conditions": "Kidney, 3 days LS, 0.1M NaHCO3 in drinking water"}}, "note": "Read-outs that look alike come from different tables or passages of the source.", "data": [{"smiles": "O=C([O-])O.[Na+]", "note": "[NaHCO3, sodium bicarbonate]", "values": [{"measurement": "markers of plasma acid base status (pH, pCO2, HCO3−)", "setting": "[1]; across the course of the study, versus vehicle", "result": "no significant difference"}, {"measurement": "Glucose", "setting": "[1]; Day 3 LS", "result": "195 ± 25", "unit": "mg/dL"}, {"measurement": "HCO3−", "setting": "[1]; Day 3 LS", "result": "25.2 ± 0.7", "unit": "mM"}, {"measurement": "Hct", "setting": "[1]; Day 3 LS", "result": "40 ± 0", "unit": "%"}, {"measurement": "pCO2", "setting": "[1]; Day 3 LS", "result": "38.3 ± 1.1"}, {"measurement": "pH", "setting": "[1]; Day 3 LS", "result": "7.43 ± 0.01"}, {"measurement": "pO2", "setting": "[1]; Day 3 LS", "result": "93.5 ± 2.4"}, {"measurement": "Glucose", "setting": "[1]; Day 7 HS", "result": "160 ± 16", "unit": "mg/dL"}, {"measurement": "HCO3−", "setting": "[1]; Day 7 HS", "result": "26.9 ± 0.6", "unit": "mM"}, {"measurement": "Hct", "setting": "[1]; Day 7 HS", "result": "39 ± 2", "unit": "%"}, {"measurement": "pCO2", "setting": "[1]; Day 7 HS", "result": "39.4 ± 3.2"}, {"measurement": "pH", "setting": "[1]; Day 7 HS", "result": "7.46 ± 0.02"}, {"measurement": "pO2", "setting": "[1]; Day 7 HS", "result": "113 ± 16"}, {"measurement": "Glucose", "setting": "[1]; Day 14 HS", "result": "235.4 ± 35", "unit": "mg/dL"}, {"measurement": "HCO3−", "setting": "[1]; Day 14 HS", "result": "26.1 ± 1.0", "unit": "mM"}, {"measurement": "Hct", "setting": "[1]; Day 14 HS", "result": "41 ± 2", "unit": "%"}, {"measurement": "pCO2", "setting": "[1]; Day 14 HS", "result": "37.4 ± 4.9"}, {"measurement": "pH", "setting": "[1]; Day 14 HS", "result": "7.46 ± 0.03"}, {"measurement": "pO2", "setting": "[1]; Day 14 HS", "result": "88.7 ± 8.5"}, {"measurement": "M1 macrophages in blood", "setting": "[2]; 1-3 hours, compared to NaCl, p=0.0004", "result": "reduced to a significantly greater degree"}, {"measurement": "TNFα positive neutrophils in blood", "setting": "[2]; 1-3 hours, compared to NaCl, p=0.0146", "result": "reduced to a significantly greater degree"}, {"measurement": "percentage of blood leukocytes identified as M2 macrophages", "setting": "[2]; change from baseline compared to NaCl, p=0.00165", "result": "increased"}, {"measurement": "parasympathetic activity (rMSSD)", "setting": "[3]; ingestion for 2 weeks", "result": "improves"}, {"measurement": "parasympathetic activity (rMSSD)", "setting": "[3]; single dose, 60 minutes", "result": "improves"}, {"measurement": "IL-6", "setting": "[4]; ingestion for 2 weeks", "result": "reduces"}, {"measurement": "IL-6", "setting": "[4]; single dose, 60 minutes", "result": "reduces"}, {"measurement": "TNF-α", "setting": "[5]; ingestion for 2 weeks", "result": "reduces"}, {"measurement": "TNF-α", "setting": "[5]; single dose, 60 minutes", "result": "reduces"}, {"measurement": "IL-10 expressing macrophages (M2-polarized macrophages) in the kidney", "setting": "[6]; 14 days HS", "result": "increase"}, {"measurement": "TNFα expressing macrophages (M1-polarized macrophages) in the kidney", "setting": "[6]; 14 days HS, p<0.01", "result": "decrease"}, {"measurement": "CD3 (% total kidney)", "setting": "[6]; [8]", "result": "1.8 ± 0.3", "unit": "%"}, {"measurement": "CD4 (% of CD3)", "setting": "[6]; [8]", "result": "55 ± 2", "unit": "%"}, {"measurement": "CD11b/c (% total kidney)", "setting": "[6]; [8]", "result": "0.4 ± 0.04", "unit": "%"}, {"measurement": "CD44 (% of CD3)", "setting": "[6]; [8]", "result": "36 ± 5", "unit": "%"}, {"measurement": "CD69 (% of CD3)", "setting": "[6]; [8]", "result": "2.8 ± 0.7", "unit": "%"}, {"measurement": "FOXP3 (% of CD3/CD4)", "setting": "[6]; [8]", "result": "3.3 ± 0.5", "unit": "%"}, {"measurement": "IL-10 (% of total kidney)", "setting": "[6]; [8]", "result": "4.2 ± 0.3", "unit": "%"}, {"measurement": "IL-17 (% of total kidney)", "setting": "[6]; [8]", "result": "0.7 ± 0.1", "unit": "%"}, {"measurement": "M1 (% of total kidney)", "setting": "[6]; [8]", "result": "0.12 ± 0.02", "unit": "%"}, {"measurement": "M2 (% of total kidney)", "setting": "[6]; [8]", "result": "0.2 ± 0.03", "unit": "%"}, {"measurement": "TNFα (% of total kidney)", "setting": "[6]; [8]", "result": "2.0 ± 0.3", "unit": "%"}, {"measurement": "CD3", "setting": "[6]; [9]", "result": "1.1 ± 0.3", "unit": "%"}, {"measurement": "CD4", "setting": "[6]; [9]", "result": "54 ± 2", "unit": "%"}, {"measurement": "CD11b/c", "setting": "[6]; [9]", "result": "0.24 ± 0.02", "unit": "%"}, {"measurement": "CD44", "setting": "[6]; [9]", "result": "52 ± 3", "unit": "%"}, {"measurement": "CD69", "setting": "[6]; [9]", "result": "0.9 ± 0.3", "unit": "%"}, {"measurement": "FOXP3", "setting": "[6]; [9]", "result": "2.6 ± 0.5", "unit": "%"}, {"measurement": "IL-10", "setting": "[6]; [9]", "result": "4.8 ± 0.5", "unit": "%"}, {"measurement": "IL-17", "setting": "[6]; [9]", "result": "0.4 ± 0.2", "unit": "%"}, {"measurement": "M1", "setting": "[6]; [9]", "result": "0.16 ± 0.04", "unit": "%"}, {"measurement": "M2", "setting": "[6]; [9]", "result": "0.36 ± 0.02", "unit": "%"}, {"measurement": "TNFα", "setting": "[6]; [9]", "result": "1.4 ± 0.2", "unit": "%"}, {"measurement": "effect of NaHCO3 to promote M1 to M2 polarization in the kidney", "setting": "[6]; after removal of the spleen or manipulation of the spleen to midline, HS diet for 2 weeks", "result": "completely abolished"}, {"measurement": "macrophage polarization in kidney tissue", "setting": "[6]; low salt fed Dahl SS rats, p=0.007", "result": "polarization from predominately M1 to M2"}, {"measurement": "macrophage polarization with both marker sets", "setting": "[6]; spleen and kidney, 14 days HS, alternative markers CD68/CD163/CD206", "result": "M1 to M2 polarization"}, {"measurement": "dose dependence of the effect on polarization", "setting": "[7]; 0.01M to 0.1M NaHCO3 in drinking water", "result": "dose dependent"}, {"measurement": "lowest NaHCO3 concentration in drinking water with changes in polarization", "setting": "[7]; low salt laboratory chow", "result": 0.01, "unit": "M"}, {"measurement": "macrophage polarization in the kidney", "setting": "[7]; out-bred Sprague Dawley rats", "result": "promote M2 polarization"}]}]}
